Columns and labels:
Assay type in all cases: in vivo, rat
[1] = tested on: androgen-responsive tissues (prostate, seminal vesicles, levator ani muscle); test: Dose response of androgenic and anabolic activities (Emax, ED50) compared to TP; conditions: for Emax (% of Intact Control): doses 0.1-1.0 mg/day; for Relative Afficacy / Relative Potency: relative to TP
Protocol: FIG. 6: Dose response Curves. Rats were left untreated, or treated with 0.1, 0.3, 0.5, 0.75 and 1.0 mg/day Compound VI, Compound VII or testosterone propionate (TP), and the weight of androgen-responsive tissues (prostate—FIG. 6A, semimal vesicles—FIG. 6B and levator ani muscle—FIG. 6C) was determined. The results are plotted as percentage of the intact control.
(§1) Compound VI and Compound VII were synthesized and characterized in the laboratory of Dr. Duane Miller at the University of Tennessee, Memphis, Tenn. Male Sprague-Dawley rats were purchased from Harlan Biosciences (Indianapolis, Ind.). The animals were maintained on a 12-h cycle of light and dark with food and water available ad libitum. All animal studies were reviewed and approved by the Animal Care and Use Committee of The Ohio State University, and conformed to the Principles of Laboratory Animal Care (NIH publication #85-23, revised 1985). Immature male Sprague-Dawley rats weighing 187 to 214 g were randomly distributed into 9 groups of 5 animals. One day before the initiation of drug treatment, groups 4 through 6 and groups 7 through 9 received unilateral or bilateral orchidectomy, respectively, via a midline scrotal incision. […] All drugs given to animals were freshly prepared as solutions in polyethylene glycol 300 (PEG 300). Groups 4 and 7 received treatment with vehicle alone (i.e., PEG 300). Animals in groups 3, 6, and 9 received testosterone propionate (TP, 0.5 mg/day) via implantation of subdermal osmotic pumps (Model 2002, Durect Corporation, Palo Alto, Calif.). Animals in groups 2, 5, and 8 received Compound VI or Compound VII (0.5 mg/day) via implantation of subdermal osmotic pumps. After 14 days of drug treatment, rats were weighed, anesthetized, and sacrificed. Blood samples were collected by venipuncture of the abdominal aorta. Plasma samples were analyzed for testosterone, FSH, LH and osteocalcin. Testosterone concentrations were measured by AniLytics Inc. (Gaithersburg, Md.). FSH and LH levels were measured by the National Hormone and Peptide Program (Dr. A F Parlow, UCLA, CA). Plasma osteocalcin levels were determined using a commercially available rat osteocalcin EIA kit from Biomedical Technologies Inc. (Stoughton, Mass.). The ventral prostates, seminal vesicles, and levator ani muscle were removed and weighed. Osmotic pumps were also removed from animals to check for correct pump operation. The weights of all organs were normalized to body weight, and analyzed for any statistically significant differences between groups using single-factor ANOVA with the alpha value set a priori at p<0.05. The weights of prostates and seminal vesicles were used as indices for evaluation of androgenic activity, and the levator ani muscle weight was used to evaluate the anabolic activity. Statistical analyses of parameters from complete blood count or serum chemical profiling, wherever applicable, were performed by single-factor ANOVA with the alpha value set a priori at p<0.05.

[2] = tested on: female rats after ovariectomy; test: Bone mineral content (DEXA) in female rats after ovariectomy
Protocol: One hundred ten female rats were assigned to one of eleven treatment groups. Groups 1-8 were ovariectomized on day one of the study. Groups 9-11 were intact animals. Groups 1-6 received Compound VI by daily subcutaneous injection at doses of 0.1, 0.3, 0.5, 0.75, 1.0, and 3 mg/day, respectively. Groups 7 and 11 received dihydrotestosterone (DHT) at a dose of 1 mg/day. Groups 8 and 9 were ovariectomized and intact control groups, respectively. Group 10 received Compound VI at a dose of 1.0 mg/day. All animals were treated for 120 days. Bone mineral content (BMC) was determined using dual energy x-ray absorptiometry (DEXA) on days 1, 30, 60, 90, and 120.

[3] = Plasma testosterone levels in male rats of varying hormonal status; conditions: 0.5 mg/day; for Plasma testosterone levels: osmotic pump, 14 days, n = 5
Source text: as §1

[4] = Plasma FSH levels in male rats of varying hormonal status; conditions: 0.5 mg/day; for Plasma FSH levels: 14 days, n = 5
Source text: as §1

[5] = Plasma LH levels in male rats of varying hormonal status; conditions: 0.5 mg/day; for Plasma LH levels: 14 days, n = 5
Source text: as §1

[6] = Plasma osteocalcin levels in male rats of varying hormonal status; conditions: 0.5 mg/day; for Plasma osteocalcin levels: 14 days, n = 5
Source text: as §1

[7] = tested on: androgen-responsive tissues (prostate, seminal vesicles, levator ani muscle); test: Androgenic and anabolic activity: weight of androgen-responsive tissues in intact, hemi-orchidectomized and castrated rats; conditions: 0.5 mg/day, 14 days, n = 5
Protocol: FIG. 3: Androgenic and Anabolic activity of Compound VI and Compound VII in rats. Male rats with normal testicular function (no surgical manipulation) were left untreated (Intact), treated with compound VI (0.5 mg/day), compound VII (0.5 mg/day) or testosterone proprionate (TP, 0.5 mg/day), and the weight of androgen-responsive tissues (prostate—FIG. 3A, semimal vesicles—FIG. 3B, and levator ani muscle—FIG. 3C) was determined.
(§2) FIG. 4: Androgenic and Anabolic activity of Compound VI and Compound VII in rats. Male rats received unilateral orchidectomy (Hemi-orchidectomized) and were left untreated (Intact), treated with vehicle alone (PEG 300), Compound VI (0.5 mg/day), Compound VII (0.5 mg/day), or testosterone proprionate (TP, 0.5 mg/day), and the weight of androgen-responsive tissues (prostate—FIG. 4A, semimal vesicles—FIG. 4B, and levator ani muscle—FIG. 4C) was determined.
as §2, with “5:” for “4:”, “bilateral” for “unilateral”, “(Castrated)” for “(Hemi-orchidectomized)”, “5A,” for “4A,”, “5B,” for “4B,”, “5C)” for “4C)”
as §1

[8] = tested on: myosin heavy chain (MHC) IIb mRNA; test: Myosin heavy chain (MHC) IIb mRNA expression in masseter muscle by RT-PCR; conditions: masseter muscle of intact female rats; untreated control = 100%
Source text: MHC is the predominant protein in skeletal muscle encoded by a multigene family expressed in a tissue-specific and developmentally regulated manner [Adams et al 1999]. In steady state, mRNA expression usually parallels the pattern of MHC protein expression. Because transcription of MHC mRNA occurs in advance of MHC protein translation, and the increased sensitivity of RT-PCR compared to western blotting, rapid changes in mRNA expression can be detected and used to analyze the subtle dynamic effects of muscle anabolism [Wright et al 1997].
The masseter muscle dissected from untreated intact female rats was set as the control level (representing 100%) of MHC IIb expression (FIG. 7A). Intact female rats treated with androgens were evaluated against the untreated controls for the effect of treatment on MHC IIb from masseter.

[9] = TP statement for castrated male rats

C[C@](O)(COc1ccc(F)cc1)C(=O)Nc1ccc([N+](=O)[O-])c(C(F)(F)F)c1 [GTx-014]
ED50 ([1]; Anabolic, Levator Ani Muscle): 0.44 ± 0.01 mg/day
Emax (% of Intact Control) ([1]; Anabolic, Levator Ani Muscle): 74.9 ± 0.4 % of Intact Control
Relative Afficacy ([1]; Anabolic, Levator Ani Muscle): 0.72
Relative Potency ([1]; Anabolic, Levator Ani Muscle): 0.34
ED50 ([1]; Androgenic, Prostate): 0.42 ± 0.04 mg/day
Emax (% of Intact Control) ([1]; Androgenic, Prostate): 14.5 ± 0.7 % of Intact Control
Relative Afficacy ([1]; Androgenic, Prostate): 0.12
Relative Potency ([1]; Androgenic, Prostate): 0.31
ED50 ([1]; Androgenic, Seminal Vesicle): 0.38 ± 0.26 mg/day
Emax (% of Intact Control) ([1]; Androgenic, Seminal Vesicle): 12.7 ± 3.1 % of Intact Control
Relative Afficacy ([1]; Androgenic, Seminal Vesicle): 0.18
Relative Potency ([1]; Androgenic, Seminal Vesicle): 0.32

C[C@]12CCC(=O)C[C@@H]1CC[C@@H]1[C@@H]2CC[C@]2(C)[C@@H](O)CC[C@@H]12 [DHT, dihydrotestosterone, reference compound]
potency comparison Compound VI versus DHT ([2]; ovariectomized female rat bone model): less potent than Compound VI
increase in BMC ([2]; ovariectomized female rats, 1.0 mg/day, treated for 120 days (group 5; DHT 1 mg/day)): 15%

CC(=O)Nc1ccc(OC[C@](C)(O)C(=O)Nc2ccc([N+](=O)[O-])c(C(F)(F)F)c2)cc1 [GTx-017]
ED50 ([1]; Anabolic, Levator Ani Muscle): 0.14 ± 0.01 mg/day
Emax (% of Intact Control) ([1]; Anabolic, Levator Ani Muscle): 101.0 ± 1.0 % of Intact Control
Relative Afficacy ([1]; Anabolic, Levator Ani Muscle): 0.97
Relative Potency ([1]; Anabolic, Levator Ani Muscle): 1.07
ED50 ([1]; Androgenic, Prostate): 0.43 ± 0.01 mg/day
Emax (% of Intact Control) ([1]; Androgenic, Prostate): 35.2 ± 0.4 % of Intact Control
Relative Afficacy ([1]; Androgenic, Prostate): 0.29
Relative Potency ([1]; Androgenic, Prostate): 0.30
ED50 ([1]; Androgenic, Seminal Vesicle): 0.55 ± 0.02 mg/day
Emax (% of Intact Control) ([1]; Androgenic, Seminal Vesicle): 28.5 ± 0.8 % of Intact Control
Relative Afficacy ([1]; Androgenic, Seminal Vesicle): 0.40
Relative Potency ([1]; Androgenic, Seminal Vesicle): 0.22

CCC(=O)O[C@H]1CC[C@H]2[C@@H]3CCC4=CC(=O)CC[C@]4(C)[C@H]3CC[C@]12C [TP, testosterone propionate, reference compound]
plasma testosterone levels versus controls ([3]; castrated male rats): higher plasma testosterone levels
Plasma testosterone levels ([3]; castrated male rats): 0.258 ± 0.103 ng/mL
Plasma testosterone levels ([3]; hemi-orchidectomized male rats): 2.366 ± 1.232 ng/mL
Plasma testosterone levels ([3]; intact male rats): 1.482 ± 0.416 ng/mL
effect on plasma FSH levels [4, 9]: significant decrease
Plasma FSH levels ([4]; castrated male rats): 58.0 ± 6.9 ng/mL
Plasma FSH levels ([4]; hemi-orchidectomized male rats): 17.2 ± 3.3 ng/mL
Plasma FSH levels ([4]; intact male rats): 11.4 ± 1.7 ng/mL
effect on plasma LH levels [5, 9]: significant decrease
Plasma LH levels ([5]; castrated male rats): 6.702 ± 1.513 ng/mL
Plasma LH levels ([5]; hemi-orchidectomized male rats): 0.124 ± 0.092 ng/mL
Plasma LH levels ([5]; intact male rats): 0.168 ± 0.173 ng/mL
effect on plasma osteocalcin levels ([6]; Compound VI statement for hemi-orchidectomized and castrated animals): no effect
Plasma osteocalcin levels ([6]; castrated male rats): 65.976 ± 11.213 ng/mL
Plasma osteocalcin levels ([6]; hemi-orchidectomized male rats): 77.236 ± 24.418 ng/mL
Plasma osteocalcin levels ([6]; intact male rats): 74.952 ± 15.399 ng/mL
Levator Ani weight ([7]; castrated rats): 87.27 ± 10.25 % of intact control
Prostate weight ([7]; castrated rats): 76.78 ± 10.43 % of intact control
Seminal Vesicle weight ([7]; castrated rats): 63.48 ± 17.05 % of intact control
Levator Ani weight ([7]; hemi-orchidectomized rats): 98.63 ± 10.47 % of intact control
Prostate weight ([7]; hemi-orchidectomized rats): 98.57 ± 7.98 % of intact control
Seminal Vesicle weight ([7]; hemi-orchidectomized rats): 114.19 ± 23.81 % of intact control
Levator Ani weight ([7]; intact rats): 95.61 ± 9.34 % of intact control
Prostate weight ([7]; intact rats): 97.45 ± 10.82 % of intact control
Seminal Vesicle weight ([7]; intact rats): 103.95 ± 13.23 % of intact control
ED50 ([1]; Anabolic, Levator Ani Muscle): 0.15 ± 0.03 mg/day
Emax (% of Intact Control) ([1]; Anabolic, Levator Ani Muscle): 104.2 ± 10.1 % of Intact Control
Relative Afficacy ([1]; Anabolic, Levator Ani Muscle): 1.00
Relative Potency ([1]; Anabolic, Levator Ani Muscle): 1.00
ED50 ([1]; Androgenic, Prostate): 0.13 ± 0.03 mg/day
Emax (% of Intact Control) ([1]; Androgenic, Prostate): 120.6 ± 13.4 % of Intact Control
Relative Afficacy ([1]; Androgenic, Prostate): 1.00
Relative Potency ([1]; Androgenic, Prostate): 1.00
ED50 ([1]; Androgenic, Seminal Vesicle): 0.12 ± 0.02 mg/day
Emax (% of Intact Control) ([1]; Androgenic, Seminal Vesicle): 70.0 ± 18.8 % of Intact Control
Relative Afficacy ([1]; Androgenic, Seminal Vesicle): 1.00
Relative Potency ([1]; Androgenic, Seminal Vesicle): 1.00
MHC type IIb transcription, of untreated control [8]: 133%
